From patent publication US20080286387A1, “Standardized method for recovering enriched Indian date extract (IDE), properties of IDE and applications thereof” (priority 2007, published 2008)

Tested on: 5-alpha-reductases
Experiment: 5-alpha-reductase inhibition
Type: biochemical
Conditions: at a workable concentration of 9 μg/ml; FIG. 4

CC(C)(C)NC(=O)[C@H]1CC[C@H]2[C@@H]3CC[C@H]4NC(=O)C=C[C@]4(C)[C@H]3CC[C@]12C [Finasteride]
inhibition of 5-alpha-reductase: ≤ 13%
